Among the data in US20260184712A1, “Heterocyclic Compounds as ENT Inhibitors and Compounds for Use in the Treatment of Cancers” (iTeos Belgium SA, priority 2022, published 2026) are IC50 values, retold here.

pIC50: −log10 of the molar value.

Usually pIC50 stands for the negative decadic logarithm of the IC50, by convention in mol/L.

The first test concerns the target T1, human ENT1 (Homo sapiens, UniProt Q99808).
T1 construct: JAR cells expressing ENT1 were purchased from ATCC; host or cells: JAR cells
T1 sequence (Q99808 1-456): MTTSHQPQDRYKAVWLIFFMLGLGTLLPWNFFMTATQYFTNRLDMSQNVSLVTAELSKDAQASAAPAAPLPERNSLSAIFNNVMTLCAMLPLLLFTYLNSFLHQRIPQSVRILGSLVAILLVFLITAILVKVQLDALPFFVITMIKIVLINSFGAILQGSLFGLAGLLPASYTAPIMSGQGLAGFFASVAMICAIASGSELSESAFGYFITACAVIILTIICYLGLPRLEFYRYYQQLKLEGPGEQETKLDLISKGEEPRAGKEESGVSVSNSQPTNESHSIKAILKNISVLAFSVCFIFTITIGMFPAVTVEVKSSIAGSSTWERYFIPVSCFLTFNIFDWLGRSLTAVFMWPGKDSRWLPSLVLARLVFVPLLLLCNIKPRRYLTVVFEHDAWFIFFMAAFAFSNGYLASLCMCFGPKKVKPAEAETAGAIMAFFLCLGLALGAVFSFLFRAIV
In words: ENT1 binding assay (competition with Sahenta-DY647 on JAR cells). The settings on record: competition with SAHENTA-DY647 binding; IC50 categorized; read-out: Binding Assay IC50. Summed up:
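Whole-cell competition on JAR cells (native ENT1): 50,000 cells pre-incubated 30 min at 4 °C with compound in HBSS/10 mM Hepes/0.1% BSA, then 100 nM Sahenta-DY647 added for 30 min at 4 °C. After washing, fluorescence (Ex 630/Em 670 nm) read; IC50 from sigmoidal fit, averaged as pIC50.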
As for `OC[C@H]1O[C@@H](n2c(NC3CCCC3)nc3c(SCc4ccccc4)ncnc32)[C@H](O)[C@@H]1O` [Compound 158], the pIC50 is 7.70 to 9.00.
On the same count and under the same terms, the same measure for `C[C@H]1O[C@@H](n2c(NC3CCCC3)nc3c(OCc4ccc(C#N)nc4)ncnc32)[C@H](O)[C@@H]1O` [Compound 74]: 7.70 to 9.00; for `COCCNc1nc2c(OCc3ccc([N+](=O)[O-])cc3)ncnc2n1[C@@H]1O[C@H](C)[C@@H](O)[C@H]1O` [Compound 23]: 7.70 to 9.00; for `Cc1cc(COc2ncnc3c2nc(NC2CCOCC2)n3[C@@H]2O[C@H](C)[C@@H](O)[C@H]2O)ccc1[N+](=O)[O-]` [Compound 103]: above 9.00.
Still for that read-out and setting: with `C[C@H]1O[C@@H](n2c(NC3CCCC3)nc3c(OCc4ccc(C#N)c(F)c4)ncnc32)[C@H](O)[C@@H]1O` [Compound 89] the figure was above 9.00; with `CCNc1nc2c(N3CCc4ccc([N+](=O)[O-])cc4C3)ncnc2n1[C@@H]1O[C@H](C)[C@@H](O)[C@H]1O` [Compound 150], 7.70 to 9.00; with `C[C@H]1O[C@@H](n2c(NCC3CCOCC3)nc3c(OCc4ccc(OC(F)F)cc4)ncnc32)[C@H](O)[C@@H]1O` [Compound 113], 7.70 to 9.00.
On the same count and under the same terms, the same measure for `C[C@H]1O[C@@H](n2c(NCC3CCC(F)(F)C3)nc3c(OCc4ccc(OC(F)F)nc4)ncnc32)[C@H](O)[C@@H]1O` (some centres unmarked) [Compound 115]: 7.70 to 9.00; for `C[C@H]1O[C@@H](n2c(NC3CCC(O)C3)nc3c(OCc4ccc(C(F)(F)F)cc4)ncnc32)[C@H](O)[C@@H]1O` (some centres unmarked) [Compound 100]: 7.70 to 9.00; for `C[C@H]1O[C@@H](n2c(NCC3CCC(F)(F)CC3)nc3c(OCc4ccc(OC(F)F)nc4)ncnc32)[C@H](O)[C@@H]1O` [Compound 116]: 7.70 to 9.00.
With `C[C@H]1O[C@@H](n2c(N[C@H]3CC[C@](C)(O)CC3)nc3c(OCc4ccc(OC(F)F)cc4)ncnc32)[C@H](O)[C@@H]1O` [Compound 121], the pIC50 is 7.70 to 9.00.
In the case of `C[C@H]1O[C@@H](n2c(NC3CCCC3)nc3c(OCc4ccc(OC(F)(F)F)nc4)ncnc32)[C@H](O)[C@@H]1O` [Compound 87], the negative-log IC50 (pIC50) was 7.70 to 9.00.
The same measure, in the same setting: with `C[C@H]1O[C@@H](n2c(NCc3ccc(C#N)nc3)nc3c(OCc4ccc(C#N)cc4)ncnc32)[C@H](O)[C@@H]1O` [Compound 70] the figure was 7.70 to 9.00.
For the molecule `C[C@H]1O[C@@H](n2c(NC3CCOCC3)nc3c(OCc4ccc(C#N)nc4)ncnc32)[C@H](O)[C@@H]1O` [Compound 76], the negative-log IC50 (pIC50) is 7.70 to 9.00.
On the same count and under the same terms, with `C[C@H]1O[C@@H](n2c(NCc3cnn(C)c3)nc3c(OCc4ccc(OC(F)F)cc4)ncnc32)[C@H](O)[C@@H]1O` [Compound 66] the figure was 7.70 to 9.00.

Another test concerns stimulated primary human T cells. In words: T cell proliferation assay, Condition A (X-VIVO15). The class given is cell-based. Conditions: Homo sapiens, T-cell, 96 h; Condition A: X-VIVO15 medium; anti-CD3/anti-CD28 beads, ATP, 4 days; CFSE-lo T cells. The method, then:
(§1) The goal of this study was to determine the potency of ENT1 inhibitors by measuring the rescued proliferation of stimulated primary human T cells incubated in the presence of 100 uM Adenosine triphosphate (ATP), in baseline conditions (condition A) or in the presence of various proteins known to bind small molecules (condition B).
(§2) Venous blood from healthy volunteers, all of whom signed an informed consent approved by the Ethics Committee (FOR—UIC—BV-050-01-01 ICF_HBS_HD Version 5.0), was obtained by ImmuneHealth (Centre Hospitalier Universitaire Tivoli, La Louviere, Belgium). Mononuclear cells were collected by density gradient centrifugation, using SepMate-50 tubes (StemCell Technologies, Grenoble, France) and Lymphoprep (Stemcell Technologies) according to the manufacturer's instructions. CD3+ T cells were isolated by immunomagnetic negative selection, using the EasySep Human T Cell Isolation Kit (StemCell Technologies) as per the manufacturer's instructions. CD3+ T cells were stored in heat inactivated FBS (hiFBS; Gibco, ThermoFisher Scientific, Merelbeke, Belgium) and 10% DMSO in liquid nitrogen.
(§3) Purified human CD3+ T cells were thawed and washed once with RPMI1640 medium, UltraGlutamine (Lonza, Verviers, Belgium) containing 10% hiFBS. Cells were resuspended in PBS containing 10% hiFBS at 1×10^7 cells/ml. One volume of cells was combined with a matching volume of 2 μM CFSE solution in PBS, mixed well by pipetting, and incubated at room temperature for 5 minutes under rotation and protected from light. Excess CFSE was quenched by addition of PBS containing 10% hiFBS, and the cells were centrifuged (300×rcf, 7 minutes) and resuspended in X-VIVO15. Cells were again centrifuged and resuspended in X-VIVO15 for counting.
(§4) Cells were resuspended at 1.6×10^6 cells/mL in X-VIVO15 medium (Condition A) or X-VIVO15 medium containing 4% (v/v) HSA (Sigma-Aldrich, Diegem, Belgium) and 0.2% (v/v) ai-Acid Glycoprotein (Sigma-Aldrich, Diegem, Belgium) (Condition B).
(§5) […] of cell suspension (2×10^4 cells) was added to wells of sterile flat-bottom 384-well plates. Cells were activated by adding […] of anti-CD3 anti-CD28 coated microbeads (Dynabeads human T-activator CD3/CD28; Life Technologies, Paisley, UK) suspended in X-VIVO15 medium or X-VIVO15 medium containing 4% (v/v) HSA and 0.2% (v/v) ai-Acid Glycoprotein at a ratio of one microbead per two cells. Serial dilutions of the ENT1 inhibitors were conducted in X-VIVO15 medium and […] of the diluent was added to the wells. Cells were mixed by pipetting up and down and pre-incubated for 30 minutes in a 37° C. humidified tissue culture incubator with 5% CO2. After pre-incubation, cells were cultured in the presence or absence of ATP (Sigma-Aldrich) at a final concentration of […]. The final well volume was 50 μl in all cases. Experiments were performed in biological duplicates. Cells were mixed by pipetting up and down and incubated for 4 days in a 37° C. humidified tissue culture incubator with 5% CO2.
(§6) Samples were run on a BD LSR Fortessa FACS machine (BD FACSDiva Software v9.0.1). Data were analyzed using FlowJo (BD, v10.7.1). T cell proliferation was determined by measuring the frequency of ‘CFSE^lo’ (i.e. CFSE-diluted).
(§7) T cell proliferation data were analyzed using FlowJo software (Version 10.6.2). Dead cells and cellular debris were excluded on the basis of forward and side scatter profile and singlet cells were selected for further analysis.
(§8) T cell proliferation was determined based on the percent CFSE^lo total T cells for each condition. The data were plotted on the y-axis against log molar (M) concentration of ENT1 inhibitors on the x-axis in GraphPad Prism (version 9.0.0). IC50 and IC90 values were generated with the ‘log(agonist) vs. response—Find ECanything(F))’ function with F constrained to 50 or 90, respectively. pICF values were generated by taking the −logECF values.
For the molecule `OC[C@H]1O[C@@H](n2c(NC3CCCC3)nc3c(SCc4ccccc4)ncnc32)[C@H](O)[C@@H]1O` [Compound 158], the negative-log IC50 (pIC50) is 7.70 to 9.00.
Still for that read-out and setting: the same measure for `COCCNc1nc2c(OCc3ccc([N+](=O)[O-])cc3)ncnc2n1[C@@H]1O[C@H](C)[C@@H](O)[C@H]1O` [Compound 23]: above 9.00; for `C[C@H]1O[C@@H](n2c(NC3CCCC3)nc3c(OCc4ccc(C#N)c(F)c4)ncnc32)[C@H](O)[C@@H]1O` [Compound 89]: above 9.00.
Same read-out and setting: with `CCNc1nc2c(N3CCc4ccc([N+](=O)[O-])cc4C3)ncnc2n1[C@@H]1O[C@H](C)[C@@H](O)[C@H]1O` [Compound 150] the figure was 7.70 to 9.00; with `C[C@H]1O[C@@H](n2c(NCC3CCOCC3)nc3c(OCc4ccc(OC(F)F)cc4)ncnc32)[C@H](O)[C@@H]1O` [Compound 113], above 9.00.

The test system is the same in a further test. In words: T cell proliferation assay, Condition B (X-VIVO15, 2% HSA and 0.1% AAG). The settings on record: Homo sapiens, T-cell, 96 h; Condition B: X-VIVO15 medium containing HSA and α1-Acid Glycoprotein; anti-CD3/anti-CD28 beads, ATP, 4 days; CFSE-lo T cells. Type of test: cell-based. The procedure:
as §1
Condition B: X-VIVO15, 2% Human Serum Albumin (HSA) and 0.1% α-1-Acid Glycoprotein (AAG)
as §2, §3, §4, §5, §6, §7, §8
`OC[C@H]1O[C@@H](n2c(NC3CCCC3)nc3c(SCc4ccccc4)ncnc32)[C@H](O)[C@@H]1O` [Compound 158] had a pIC50 of 6.30 to 7.70.
The same measure, in the same setting: the same measure for `C[C@H]1O[C@@H](n2c(NC3CCCC3)nc3c(OCc4ccc(C#N)nc4)ncnc32)[C@H](O)[C@@H]1O` [Compound 74]: 6.30 to 7.70; for `COCCNc1nc2c(OCc3ccc([N+](=O)[O-])cc3)ncnc2n1[C@@H]1O[C@H](C)[C@@H](O)[C@H]1O` [Compound 23]: 6.30 to 7.70.
Still for that read-out and setting: the same measure for `Cc1cc(COc2ncnc3c2nc(NC2CCOCC2)n3[C@@H]2O[C@H](C)[C@@H](O)[C@H]2O)ccc1[N+](=O)[O-]` [Compound 103]: 6.30 to 7.70; for `C[C@H]1O[C@@H](n2c(NC3CCCC3)nc3c(OCc4ccc(C#N)c(F)c4)ncnc32)[C@H](O)[C@@H]1O` [Compound 89]: 6.30 to 7.70; for `CCNc1nc2c(N3CCc4ccc([N+](=O)[O-])cc4C3)ncnc2n1[C@@H]1O[C@H](C)[C@@H](O)[C@H]1O` [Compound 150]: 6.30 to 7.70.
Same read-out and setting: the same measure for `C[C@H]1O[C@@H](n2c(NCC3CCOCC3)nc3c(OCc4ccc(OC(F)F)cc4)ncnc32)[C@H](O)[C@@H]1O` [Compound 113]: 6.30 to 7.70; for `C[C@H]1O[C@@H](n2c(NCC3CCC(F)(F)C3)nc3c(OCc4ccc(OC(F)F)nc4)ncnc32)[C@H](O)[C@@H]1O` (some centres unmarked) [Compound 115]: below 6.30; for `C[C@H]1O[C@@H](n2c(NC3CCC(O)C3)nc3c(OCc4ccc(C(F)(F)F)cc4)ncnc32)[C@H](O)[C@@H]1O` (some centres unmarked) [Compound 100]: 6.30 to 7.70.
As for `C[C@H]1O[C@@H](n2c(NCC3CCC(F)(F)CC3)nc3c(OCc4ccc(OC(F)F)nc4)ncnc32)[C@H](O)[C@@H]1O` [Compound 116], the negative logarithm of the IC50 (pIC50) was 6.30 to 7.70.
On the same count and under the same terms, with `C[C@H]1O[C@@H](n2c(N[C@H]3CC[C@](C)(O)CC3)nc3c(OCc4ccc(OC(F)F)cc4)ncnc32)[C@H](O)[C@@H]1O` [Compound 121] the figure was 6.30 to 7.70; with `C[C@H]1O[C@@H](n2c(NC3CCCC3)nc3c(OCc4ccc(OC(F)(F)F)nc4)ncnc32)[C@H](O)[C@@H]1O` [Compound 87], 6.30 to 7.70; with `C[C@H]1O[C@@H](n2c(NCc3ccc(C#N)nc3)nc3c(OCc4ccc(C#N)cc4)ncnc32)[C@H](O)[C@@H]1O` [Compound 70], 6.30 to 7.70.
Still for that read-out and setting: with `C[C@H]1O[C@@H](n2c(NC3CCOCC3)nc3c(OCc4ccc(C#N)nc4)ncnc32)[C@H](O)[C@@H]1O` [Compound 76] the figure was 6.30 to 7.70; with `C[C@H]1O[C@@H](n2c(NCc3cnn(C)c3)nc3c(OCc4ccc(OC(F)F)cc4)ncnc32)[C@H](O)[C@@H]1O` [Compound 66], 6.30 to 7.70.
